In article PMC7565988, “Insight into the Anticancer Activity of Copper(II) 5-Methylenetrimethylammonium-Thiosemicarbazonates and Their Interaction with Organic Cation Transporters” (Biomolecules, 2020):
Read-outs that look alike come from different tables or passages of the source.

Key:
[1] = system: SH-SY5Y neuroblastoma cells; assay: MTT cytotoxicity (24 h) / antiproliferation (72 h) assay; assay type: cell-based, human; conditions: MTT
Protocol: SH-SY5Y (ATCC® CRL-2266™) neuroblastoma cell line was purchased from LGC Promochem, Teddington, UK. The cell line was cultured in Eagle’s Minimal Essential Medium (EMEM, containing 4.5 g/L glucose) supplemented with a non-essential amino acid mixture, a selection of vitamins and 10% heat-inactivated foetal bovine serum. The cell line was incubated at 37 °C, in a 5% CO2, 95% air atmosphere.
(§1) In the study non-cancerous human embryonic lung fibroblast MRC-5, human colonic adenocarcinoma cell line (doxorubicin-sensitive Colo 205, multidrug resistant Colo 320) and neuroblastoma cell line SH-SY5Y were used to determine the effect of compounds on cell growth. The effects of increasing concentrations of compounds on cell growth were tested in 96-well flat-bottomed microtiter plates. The compounds were diluted in a volume of 100 μL of medium.
The adherent human embryonal lung fibroblast and SH-SY5Y neuroblastoma cells were cultured in 96-well flat-bottomed microtiter plates, using EMEM supplemented with 10% heat-inactivated foetal bovine serum. The density of the cells was adjusted to 2 × 10^4 cells in 100 μL per well, the cells were seeded for 24 h at 37 °C, 5% CO2, then the medium was removed from the plates containing the cells, and the dilutions of compounds previously made in a separate plate were added to the cells in 200 μL.
(§2) The culture plates were incubated at 37 °C for 24 h; at the end of the incubation period, 20 μL of MTT (thiazolyl blue tetrazolium bromide, Sigma) solution (from a stock solution of 5 mg/mL) were added to each well. After incubation at 37 °C for 4 h, 100 μL of sodium dodecyl sulfate (SDS) (Sigma) solution (10% in 0.01 M HCI) were added to each well and the plates were further incubated at 37 °C overnight. Cell growth was determined by measuring the optical density (OD) at 540/630 nm with Multiscan EX ELISA reader (Thermo Labsystems, Cheshire, WA, USA). […] Curves were fitted by GraphPad Prism software using the sigmoidal dose-response model (comparing variable and fixed slopes).
(§3) The method is similar to the one described in the assay for cytotoxic effect. […] The culture plates were incubated at 37 °C for 72 h and after the incubation time, the plates were stained with MTT according to the previous experimental protocol described for the cytotoxicity assay.

[2] = system: Colo 205 doxorubicin-sensitive colonic adenocarcinoma cells; assay: as above; assay type: cell-based, human; conditions: read-out: Colo205 IC50
Protocol: Human doxorubicin-sensitive Colo 205 (ATCC-CCL-222) and multidrug resistant Colo 320 (overexpressing ABCB1 (MDR1)-LRP (ATCC-CCL-220.1)) colonic adenocarcinoma cell lines were purchased from LGC Promochem, Teddington, UK. The cells were cultured in RPMI 1640 medium supplemented with 10% heat-inactivated fetal bovine serum, 2 mM L-glutamine, 1 mM Na-pyruvate and 100 mM Hepes. The cell lines were incubated at 37 °C, in a 5% CO2, 95% air atmosphere. The semi-adherent human colon cancer cells were detached with Trypsin-Versene (EDTA) solution for 5 min at 37 °C.
as §1
In case of the colonic adenocarcinoma cells, the two-fold serial dilutions of compounds were prepared in 100 μL of RPMI 1640, horizontally. The semi-adherent colonic adenocarcinoma cells were treated with Trypsin–Versene (EDTA) solution. The cells were adjusted to a density of 2 × 10^4 cells in 100 μL of RPMI 1640 medium, and were added to each well, with the exception of the medium control wells. The final volume of the wells containing compounds and cells was 200 μL.
as §2, §3

OCT1 = target: T1, OCT1 (Homo sapiens, UniProt O15245); design: method as in PMID 14576340; conditions: reference inhibitor; cited from earlier work
T1 construct: expressed in transfected cells
T1 sequence (O15245 1-554): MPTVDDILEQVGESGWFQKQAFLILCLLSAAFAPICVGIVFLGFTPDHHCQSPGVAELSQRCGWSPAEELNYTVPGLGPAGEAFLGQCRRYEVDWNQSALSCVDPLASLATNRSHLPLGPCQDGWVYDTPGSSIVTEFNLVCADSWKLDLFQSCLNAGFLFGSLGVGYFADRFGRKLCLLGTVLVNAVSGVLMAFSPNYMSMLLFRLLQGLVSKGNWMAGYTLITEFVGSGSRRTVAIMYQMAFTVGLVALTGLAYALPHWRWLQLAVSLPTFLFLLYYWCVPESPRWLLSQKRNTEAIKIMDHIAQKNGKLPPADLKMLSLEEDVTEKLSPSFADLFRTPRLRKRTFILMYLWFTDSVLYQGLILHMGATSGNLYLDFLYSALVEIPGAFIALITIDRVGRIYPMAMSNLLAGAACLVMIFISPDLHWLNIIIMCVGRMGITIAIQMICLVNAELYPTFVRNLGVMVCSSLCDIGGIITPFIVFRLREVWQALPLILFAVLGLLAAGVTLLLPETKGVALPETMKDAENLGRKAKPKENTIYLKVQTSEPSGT

OCT2 = target: T2, OCT2 (Homo sapiens, UniProt O15244); design: method as in PMID 14576340; conditions: reference inhibitor; cited from earlier work
T2 construct: expressed in transfected cells
T2 sequence (O15244 1-555): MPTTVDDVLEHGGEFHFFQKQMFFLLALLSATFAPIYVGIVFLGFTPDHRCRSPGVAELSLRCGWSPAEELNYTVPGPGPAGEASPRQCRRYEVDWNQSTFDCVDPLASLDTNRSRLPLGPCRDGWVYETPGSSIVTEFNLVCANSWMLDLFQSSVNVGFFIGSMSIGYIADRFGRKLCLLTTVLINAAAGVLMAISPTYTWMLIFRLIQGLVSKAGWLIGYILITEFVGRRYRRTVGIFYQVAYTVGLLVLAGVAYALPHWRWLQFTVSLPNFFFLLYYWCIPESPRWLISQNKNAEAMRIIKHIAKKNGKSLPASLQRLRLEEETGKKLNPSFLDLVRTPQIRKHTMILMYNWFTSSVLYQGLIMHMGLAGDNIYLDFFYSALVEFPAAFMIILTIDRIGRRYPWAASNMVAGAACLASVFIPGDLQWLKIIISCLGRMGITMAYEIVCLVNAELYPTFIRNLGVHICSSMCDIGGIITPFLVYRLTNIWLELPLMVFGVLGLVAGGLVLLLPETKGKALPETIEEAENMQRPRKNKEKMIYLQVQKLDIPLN

OCT3 = target: T3, OCT3 (Homo sapiens, UniProt O75751); design: method as in PMID 14576340; conditions: reference inhibitor; cited from earlier work
T3 construct: expressed in transfected cells
T3 sequence (O75751 1-556): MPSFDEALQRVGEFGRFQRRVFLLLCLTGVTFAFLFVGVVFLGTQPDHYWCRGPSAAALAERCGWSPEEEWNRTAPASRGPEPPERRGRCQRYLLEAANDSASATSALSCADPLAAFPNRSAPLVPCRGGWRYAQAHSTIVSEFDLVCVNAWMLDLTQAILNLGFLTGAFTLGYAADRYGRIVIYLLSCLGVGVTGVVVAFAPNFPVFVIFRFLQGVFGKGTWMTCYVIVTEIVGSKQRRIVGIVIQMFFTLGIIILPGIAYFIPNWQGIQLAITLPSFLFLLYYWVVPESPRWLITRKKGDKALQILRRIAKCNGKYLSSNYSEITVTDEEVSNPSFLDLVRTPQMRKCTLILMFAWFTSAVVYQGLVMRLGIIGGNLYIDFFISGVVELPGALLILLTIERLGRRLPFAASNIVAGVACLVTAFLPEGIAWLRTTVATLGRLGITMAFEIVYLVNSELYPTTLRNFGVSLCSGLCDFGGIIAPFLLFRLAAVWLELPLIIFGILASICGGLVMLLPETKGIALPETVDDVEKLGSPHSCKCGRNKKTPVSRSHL

[3] = design: method as in doi:10.1002/ejic.201200360; conditions: pure water; cited from earlier work
[4] = design: method as in doi:10.1002/ejic.201200360; conditions: pH 7.4; cited from earlier work

With `N.N.[Cl][Pt][Cl]` [Cisplatin, reference compound] as the compound, how does the IC50 ([1]; 24 h exposure) read?
Its IC50 is 26000 ± 2380 nM.

What about the IC50 ([1]; 72 h exposure) of the same compound?
Its IC50 is 650 ± 80 nM.

What about the IC50 ([2]; 24 h exposure) of the same compound?
The IC50 was 68800 ± 5080 nM.

What about the IC50 ([2]; 72 h exposure) of the same compound?
The IC50 was 8140 ± 1590 nM.

What does the source list for `CCN1/C(=C/c2ccc3ccccc3[n+]2CC)C=Cc2ccccc21` [D-22, decynium-22]?
IC50 (OCT1): 980 ± 310 nM; IC50 (OCT2): 1130 ± 190 nM; IC50 (OCT3): 90 ± 10 nM

With `NC(=S)N/N=C/c1ccccc1O` [STSC, salicylaldehyde thiosemicarbazone] as the compound, how does the “pKa of the phenolic OH moiety” value [3] read?
Its value is 8.88.

And the logD7.4 [4]?
The logD7.4 was “+1.74”.
